Assay results as given in ChEMBL document CHEMBL1156351, “A new isoquinoline alkaloid from the marine sponge Haliclona species” (J Nat Prod, 2001).
Converted amounts (≈) assume the structure as drawn. The source made the active and inactive calls. No cut-off for these calls is given here.

Columns and labels:
Format in all cases: functional, cell-based
LOX = assay: Cytotoxicity against human LOX cells at 50 ug/mL after 2 days by XTT assay
OVCAR-3 [1] = assay: Cytotoxicity against human OVCAR-3 cells at 50 ug/mL after 2 days by XTT assay
[2] = Cytotoxicity against human LOX cells after 2 days by XTT assay; conditions: 48 h
OVCAR-3 [3] = assay: Cytotoxicity against human OVCAR-3 cells after 2 days by XTT assay; conditions: OVCAR-3, 48 h

Row | Compound | Activity (LOX) | Activity (OVCAR-3 [1]) | IC50 [2] | IC50 (OVCAR-3 [3])
1 | COc1cc2c(CO)nccc2cc1O | inactive | inactive |  | 
2 | COC1=C(C)C(=O)c2cc(=O)n(C)c(C)c2C1=O [MIMOSAMYCIN] |  |  | 10 µg/mL (≈ 40.4 µM) | 10 µg/mL (≈ 40.4 µM)
